Measured values as given in patent US4774242A, “Tetrahydrobenz(c,d)indoles and pharmaceutical use” (Roussel Uclaf, priority 1986, dated 1988).

Tests used:
dopaminergic receptors = biological target: T1, dopaminergic receptors (Rattus norvegicus, UniProt P61169); experiment: Affinities for the dopaminergic receptors (displacement of spiroperidol 3H, rat striated bodies); assay type: binding; conditions: rat striatum, relative to haloperidol = 100, from concentrations inhibiting 50% of specific fixation
T1 construct: Striated bodies removed from the brains of 6 male rats; from tissue; host or cells: rat striatum (striated bodies), membrane fraction
Experimental: Striated bodies removed from the brains of 6 male rats weighing an average of 150 g were homogenized at one-twentieth (weight/volume) in 0.32M sucrose. After centrifuging the homogenized mixture at 1000 g for 10 minutes at 0° C., the supernatant was centrifuged at 30,000 g for 15 minutes at +4° C. The residue was taken up in 25 ml of Tris HCl 50 mM pH 7.7 buffer and centrifuged at 30,000 g for 15 minutes at +4° C. The new residue was taken up in 50 ml of Krebs Tris HCl pH 7.3 buffer and the suspension was pre-incubated for 10 minutes at 37° C. Then it was incubated for 29 minutes on a water-bath at +37° C. in the presence of spiroperidol ^3 H alone, with an excess of haloperidol, and with increasing concentrations of the test product. The incubated suspensions were filtered on Whatman GF/C and the filters were washed three times with 5 ml of Tris HCl 50 mM buffer. The radioactivity of the filters is measured by liquid scintillation. The non-specific fixation was determined in parallel by incubation of spiroperidol ^3 H in the presence of an excess of haloperidol. The affinity of the product tested for the dopaminergic receptors is given relative to haloperidol as reference product,
CD=concentration of cold haloperidol inhibiting 50% of the specific fixation of the spiroperidol ^3 H,
CX=concentration of the product under test inhibiting 50% of the specific fixation of the piroperidol ^3 H.
The relative affinity was determined by the relation: [formula]

arterial pressure = experiment: Determination of hypotensive activity (carotid arterial pressure, anesthetized rats); assay type: in vivo, male rats of WISTAR strain; conditions: 0.01 mg/kg intravenous, anesthetized male Wistar rats
Experimental: The hypotensive activity was studied in male rats of WISTAR strain weighing about 300 g and anesthetized with nembutal (50 mg/kg by intraperitoneal route). The test product was administered intravenously in the jugular vein. The arterial pressure in the carotid was measured before and after administration of the test product. The following table indicates the variations expressed in percentage of the arterial pressure after administration of the product under test relative to the initial control arterial pressure.

[1] = Study of the acute toxicity (LD0); assay type: in vivo; conditions: oral, mice, maximal dose not causing any mortality over 8 days
Experimental: The lethal doses LD0 of the different compounds tested was evaluated after oral administration in mice and the maximal dose not causing any mortality over 8 days was called the LD0.

enolase γγ = experiment: Antianoxic activity: enolase test (kainic acid lesions); assay type: in vivo; conditions: intraperitoneal, upwards of a dose of 1 mg/kg, 1 hour after kainic acid, mice
Experimental: Suffering cerebral cells release enolase γγ which is a specific indicator of neuronal lesions. In the test, the lesions were carried out in mice by subcutaneous injection of 35/mg/kg of kainic acid.

T1 sequence (P61169 whole entry): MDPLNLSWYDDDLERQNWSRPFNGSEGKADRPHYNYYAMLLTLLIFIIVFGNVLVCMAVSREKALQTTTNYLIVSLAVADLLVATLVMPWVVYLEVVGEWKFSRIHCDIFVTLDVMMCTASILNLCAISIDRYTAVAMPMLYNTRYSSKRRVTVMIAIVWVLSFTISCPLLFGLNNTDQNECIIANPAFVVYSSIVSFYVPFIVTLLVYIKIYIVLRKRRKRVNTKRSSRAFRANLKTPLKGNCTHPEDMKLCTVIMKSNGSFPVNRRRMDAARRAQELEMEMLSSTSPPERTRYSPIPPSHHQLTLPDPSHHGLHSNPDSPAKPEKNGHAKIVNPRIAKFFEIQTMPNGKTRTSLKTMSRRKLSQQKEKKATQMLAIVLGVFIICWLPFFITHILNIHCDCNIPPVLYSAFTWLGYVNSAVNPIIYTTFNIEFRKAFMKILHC

Compound	Relative affinity (Haloperidol = 100) (dopaminergic receptors)	% Variations of the arterial pressure 5 minutes after administration (arterial pressure)	LD0 [1]	seral concentration of enolase (enolase γγ)
CN1CCO[C@@H]2c3c[nH]c4cccc(c34)C[C@H]21 (relative stereo) [Example 4, (d,l trans) 2,6a,7,8,9,10a-hexahydro-7-methyl 6H-indol-[4,3-g,h]-1,4-benzoxazine]	0.4			
CCCN1CCO[C@@H]2c3c[nH]c4cccc(c34)C[C@H]21 (relative stereo) [Example 3, (dl-trans) 2,6a,7,8,9,10a-hexahydro-7-propyl-6H-indol-[4,3-g,h]-1,4-benzoxazine]	13	< -40%	100 mg/kg	reduced the seral concentration of enolase
c1cc2c3c(c[nH]c3c1)[C@H]1OCCN[C@@H]1C2 (relative stereo) [Example 2, (dl-trans) 2,6,6a,7,8,9,10a-hexahydro-6H-indol-[4,3-g,h]-1,4-benzoxazine]	0.09		> 200 mg/kg	
